Our source for the Ki values is patent publication US20230159532A1, “PARATHYROID HORMONE (PTH) RECEPTOR ANTAGONISTS AND USES THEREOF” (Crinetics Pharmaceuticals, Inc., priority 2021, published 2023).

Where only a bound is given, the exact number is not on record here.

In general, Ki refers to the equilibrium dissociation constant of an inhibitor or competing ligand from its target.

The test has as its target T1, human PTHR1 receptor (Homo sapiens, UniProt Q03431).
T1 construct: purchased Eurofins HTS030M
T1 sequence (Q03431 27-593): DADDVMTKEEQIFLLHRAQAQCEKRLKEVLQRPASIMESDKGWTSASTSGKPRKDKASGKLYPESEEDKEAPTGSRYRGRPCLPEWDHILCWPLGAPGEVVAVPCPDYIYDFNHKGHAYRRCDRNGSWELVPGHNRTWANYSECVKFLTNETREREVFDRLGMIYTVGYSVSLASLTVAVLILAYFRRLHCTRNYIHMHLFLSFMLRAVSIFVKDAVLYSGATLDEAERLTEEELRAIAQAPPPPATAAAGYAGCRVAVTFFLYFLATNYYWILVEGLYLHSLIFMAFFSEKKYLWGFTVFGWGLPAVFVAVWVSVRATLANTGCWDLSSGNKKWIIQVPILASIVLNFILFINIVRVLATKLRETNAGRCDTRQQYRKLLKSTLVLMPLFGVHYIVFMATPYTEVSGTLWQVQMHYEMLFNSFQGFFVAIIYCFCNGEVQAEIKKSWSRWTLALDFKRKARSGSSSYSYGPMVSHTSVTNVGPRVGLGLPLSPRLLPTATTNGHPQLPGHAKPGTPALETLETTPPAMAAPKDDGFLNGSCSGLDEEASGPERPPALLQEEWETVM
In words: Competitive antagonist binding assay for hPTH-R1 (radioactive competition binding, SPA beads). The note with it: human PTHR1 membranes, [125I]-[Nle8,18,Tyr34]-PTH(1-34) 0.2 nM, 90 minutes at room temperature; read-out: hPTHR1 Ki. In a few lines:
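Displacement of 0.2 nM radioiodinated [Nle8,18,Tyr34]-PTH(1-34) from membrane-bound human PTHR1 measured by scintillation proximity after 90 min at room temperature. Compounds typically 0-10,000 nM final, pH 7.4 HEPES/Mg/Ca buffer with BSA and detergent. Ki calculated from competition data.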
In the case of `CCN1C(=O)N(c2c(F)cc(NCCN(C)CCO)cc2F)c2cc(Cl)ccc2-c2cc(Cl)cnc21` [1-73, 4,13-dichloro-10-[2,6-difluoro-4-({2-[(2-hydroxyethyl)(methyl)amino]ethyl}amino)phenyl]-8-ethyl-6,8,10-triazatricyclo[9.4.0.0^2,7]pentadeca-1(11),2(7),3,5,12,14-hexaen-9-one], the Ki is less than 100 nM.
The result for `CCN1C(=O)N(c2c(F)cc(NCCNCCOC)cc2F)c2cc(Cl)ccc2-c2cc(Cl)cnc21` [1-74, 4,13-dichloro-10-[2,6-difluoro-4-({2-[(2-methoxyethyl)amino]ethyl}amino)phenyl]-8-ethyl-6,8,10-triazatricyclo[9.4.0.0^2,7]pentadeca-1(11),2(7),3,5,12,14-hexaen-9-one] reads less than 100 nM; that for `CNCCNc1cc(F)c(N2C(=O)N(C)c3ncc(F)cc3-c3c(C)cc(Cl)cc32)c(F)c1` [1-75, 13-chloro-10-(2,6-difluoro-4-{[2-(methylamino)ethyl]amino}phenyl)-4-fluoro-8,15-dimethyl-6,8,10-triazatricyclo[9.4.0.0^2,7]pentadeca-1(11),2(7),3,5,12,14-hexaen-9-one], less than 100 nM.
The result for `Cc1cc(Cl)cc2c1-c1cc(F)cnc1N(C)C(=O)N2c1c(F)cc(NCCNCCO)cc1F` [1-76, 13-chloro-10-[2,6-difluoro-4-({2-[(2-hydroxyethyl)amino]ethyl}amino)phenyl]-4-fluoro-8,15-dimethyl-6,8,10-triazatricyclo[9.4.0.0^2,7]pentadeca-1(11),2(7),3,5,12,14-hexaen-9-one] reads less than 100 nM; that for `Cc1cc(Cl)cc2c1-c1cc(F)cnc1N(C)C(=O)N2c1c(F)cc(NCCNCCCC(=O)O)cc1F` [1-77, 4-({2-[(4-{13-chloro-4-fluoro-8,15-dimethyl-9-oxo-6,8,10-triazatricyclo[9.4.0.0^2,7]pentadeca-1(11),2(7),3,5,12,14-hexaen-10-yl}-3,5-difluorophenyl)amino]ethyl}amino)butanoic acid], less than 100 nM.
Take `CNCCNc1cc(F)c(N2C(=O)N(C(C)C)c3ncc(F)cc3-c3c(C)cc(Cl)cc32)c(F)c1` [1-78, 13-chloro-10-(2,6-difluoro-4-{[2-(methylamino)ethyl]amino}phenyl)-4-fluoro-15-methyl-8-(propan-2-yl)-6,8,10-triazatricyclo[9.4.0.0^2,7]pentadeca-1(11),2(7),3,5,12,14-hexaen-9-one]: the Ki is less than 100 nM.
In the case of `Cc1cc(Cl)cc2c1-c1cc(F)cnc1N(C(C)C)C(=O)N2c1c(F)cc(NCCNCCO)cc1F` [1-79, 13-chloro-10-[2,6-difluoro-4-({2-[(2-hydroxyethyl)amino]ethyl}amino)phenyl]-4-fluoro-15-methyl-8-(propan-2-yl)-6,8,10-triazatricyclo[9.4.0.0^2,7]pentadeca-1(11),2(7),3,5,12,14-hexaen-9-one], the Ki is less than 100 nM.
In the case of `Cc1cc(Cl)cc2c1-c1cc(F)cnc1N(C(C)C)C(=O)N2c1c(F)cc(NCCNCCCC(=O)O)cc1F` [1-80, 4-{[2-({4-[13-chloro-4-fluoro-15-methyl-9-oxo-8-(propan-2-yl)-6,8,10-triazatricyclo[9.4.0.0^2,7]pentadeca-1(11),2(7),3,5,12,14-hexaen-10-yl]-3,5-difluorophenyl}amino)ethyl]amino}butanoic acid], the inhibition constant (Ki) is less than 100 nM.
The result for `CCN1C(=O)N(c2c(F)cc(NCCNC)cc2F)c2cc(C#N)ccc2-c2cc(F)cnc21` [1-81, 10-(2,6-difluoro-4-{[2-(methylamino)ethyl]amino}phenyl)-8-ethyl-4-fluoro-9-oxo-6,8,10-triazatricyclo[9.4.0.0^2,7]pentadeca-1(11),2(7),3,5,12,14-hexaene-13-carbonitrile] reads less than 100 nM; that for `CCN1C(=O)N(c2c(F)cc(NCCNCCO)cc2F)c2cc(C#N)ccc2-c2cc(F)cnc21` [1-82, 10-[2,6-difluoro-4-({2-[(2-hydroxyethyl)amino]ethyl}amino)phenyl]-8-ethyl-4-fluoro-9-oxo-6,8,10-triazatricyclo[9.4.0.0^2,7]pentadeca-1(11),2(7),3,5,12,14-hexaene-13-carbonitrile], less than 100 nM.
As to `CCN1C(=O)N(c2c(F)cc(NCCNCCCC(=O)O)cc2F)c2cc(C#N)ccc2-c2cc(F)cnc21` [1-83, 4-({2-[(4-{13-cyano-8-ethyl-4-fluoro-9-oxo-6,8,10-triazatricyclo[9.4.0.0^2,7]pentadeca-1(11),2(7),3,5,12,14-hexaen-10-yl}-3,5-difluorophenyl)amino]ethyl}amino)butanoic acid], the Ki is less than 100 nM.
Take `CNCCNc1cc(F)c(N2C(=O)N(C(C)C)c3ncc(F)cc3-c3ccc(C#N)cc32)c(F)c1` [1-84, 10-(2,6-difluoro-4-{[2-(methylamino)ethyl]amino}phenyl)-4-fluoro-9-oxo-8-(propan-2-yl)-6,8,10-triazatricyclo[9.4.0.0^2,7]pentadeca-1(11),2(7),3,5,12,14-hexaene-13-carbonitrile]: the Ki was less than 100 nM.
With `CC(C)N1C(=O)N(c2c(F)cc(NCCNCCO)cc2F)c2cc(C#N)ccc2-c2cc(F)cnc21` [1-85, 10-[2,6-difluoro-4-({2-[(2-hydroxyethyl)amino]ethyl}amino)phenyl]-4-fluoro-9-oxo-8-(propan-2-yl)-6,8,10-triazatricyclo[9.4.0.0^2,7]pentadeca-1(11),2(7),3,5,12,14-hexaene-13-carbonitrile], the inhibitory constant (Ki) is less than 100 nM.
As for `CC(C)N1C(=O)N(c2c(F)cc(NCCNCCCC(=O)O)cc2F)c2cc(C#N)ccc2-c2cc(F)cnc21` [1-86, 4-{[2-({4-[13-cyano-4-fluoro-9-oxo-8-(propan-2-yl)-6,8,10-triazatricyclo[9.4.0.0^2,7]pentadeca-1(11),2(7),3,5,12,14-hexaen-10-yl]-3,5-difluorophenyl}amino)ethyl]amino}butanoic acid], the Ki was less than 100 nM.
Turning to `CCN1C(=O)N(c2c(F)cc(NCCNC)cc2F)c2cc(Cl)cc(OC)c2-c2cc(F)cnc21` [1-87, 13-chloro-10-(2,6-difluoro-4-{[2-(methylamino)ethyl]amino}phenyl)-8-ethyl-4-fluoro-15-methoxy-6,8,10-triazatricyclo[9.4.0.0^2,7]pentadeca-1(11),2(7),3,5,12,14-hexaen-9-one], the inhibition constant (Ki) was less than 100 nM.
For the compound `CCN1C(=O)N(c2c(F)cc(NCCNCCO)cc2F)c2cc(Cl)cc(OC)c2-c2cc(F)cnc21` [1-88, 13-chloro-10-[2,6-difluoro-4-({2-[(2-hydroxyethyl)amino]ethyl}amino)phenyl]-8-ethyl-4-fluoro-15-methoxy-6,8,10-triazatricyclo[9.4.0.0^2,7]pentadeca-1(11),2(7),3,5,12,14-hexaen-9-one], the Ki is less than 100 nM.
For `CCN1C(=O)N(c2c(F)cc(NCCNC)cc2F)c2cc(Cl)ccc2-c2cc(C#N)cnc21` [1-89, 13-chloro-10-(2,6-difluoro-4-{[2-(methylamino)ethyl]amino}phenyl)-8-ethyl-9-oxo-6,8,10-triazatricyclo[9.4.0.0^2,7]pentadeca-1(11),2(7),3,5,12,14-hexaene-4-carbonitrile], the Ki is less than 100 nM.
As to `CCN1C(=O)N(c2c(F)cc(NCCNCCO)cc2F)c2cc(Cl)ccc2-c2cc(C#N)cnc21` [1-90, 13-chloro-10-[2,6-difluoro-4-({2-[(2-hydroxyethyl)amino]ethyl}amino)phenyl]-8-ethyl-9-oxo-6,8,10-triazatricyclo[9.4.0.0^2,7]pentadeca-1(11),2(7),3,5,12,14-hexaene-4-carbonitrile], the Ki was less than 100 nM.
For the compound `CNCCNc1cc(F)c(N2C(=O)N(C(C)C)c3ncc(Cl)cc3-c3ccc(C#N)cc32)c(F)c1` [1-91, 4-chloro-10-(2,6-difluoro-4-{[2-(methylamino)ethyl]amino}phenyl)-9-oxo-8-(propan-2-yl)-6,8,10-triazatricyclo[9.4.0.0^2,7]pentadeca-1(11),2(7),3,5,12,14-hexaene-13-carbonitrile], the Ki was less than 100 nM.
Regarding `CC(C)N1C(=O)N(c2c(F)cc(NCCNCCO)cc2F)c2cc(C#N)ccc2-c2cc(Cl)cnc21` [1-92, 4-chloro-10-[2,6-difluoro-4-({2-[(2-hydroxyethyl)amino]ethyl}amino)phenyl]-9-oxo-8-(propan-2-yl)-6,8,10-triazatricyclo[9.4.0.0^2,7]pentadeca-1(11),2(7),3,5,12,14-hexaene-13-carbonitrile], the inhibitory constant (Ki) is less than 100 nM.
Turning to `CC(C)N1C(=O)N(c2c(F)cc(NCCNCCCC(=O)O)cc2F)c2cc(C#N)ccc2-c2cc(Cl)cnc21` [1-93, 4-{[2-({4-[4-chloro-13-cyano-9-oxo-8-(propan-2-yl)-6,8,10-triazatricyclo[9.4.0.0^2,7]pentadeca-1(11),2(7),3,5,12,14-hexaen-10-yl]-3,5-difluorophenyl}amino)ethyl]amino}butanoic acid], the Ki was less than 100 nM.
Consider `CCN1C(=O)N(c2c(F)cc(NCCNC)cc2F)c2cc(Cl)cc(F)c2-c2cc(F)cnc21` [1-94, 13-chloro-10-(2,6-difluoro-4-{[2-(methylamino)ethyl]amino}phenyl)-8-ethyl-4,15-difluoro-6,8,10-triazatricyclo[9.4.0.0^2,7]pentadeca-1(11),2(7),3,5,12,14-hexaen-9-one], for which the inhibition constant (Ki) is less than 100 nM.
